Reference: ChEMBL document CHEMBL3785051, “Recent progress on third generation covalent EGFR inhibitors” (Bioorg Med Chem Lett, 2016)
One block for each molecule: values may come before it.

Legend:
[1] = biological target: Epidermal growth factor receptor (Homo sapiens, UniProt P00533); experiment: Inhibition of wild type EGFR phosphorylation in human LoVo cells preincubated for 2 hrs followed by EGF stimulation measured after 30 mins by ELISA; format: cell-based
[2] = biological target: Epidermal growth factor receptor (Homo sapiens, UniProt P00533, EX19DEL); experiment: Inhibition of EGFR Del ex19 mutant phosphorylation in human PC9 cells preincubated for 2 hrs by ELISA; format: cell-based, PC-9
[3] = biological target: Epidermal growth factor receptor (Homo sapiens, UniProt P00533, L858R/T790M); experiment: Inhibition of EGFR T790M/L858R double mutant phosphorylation in human H1975 cells preincubated for 2 hrs by ELISA; format: cell-based
[4] = Clearance in patient with EGFR TKI-resistant NSCLC at 20 to 240 mg, po qd; format: ADME, organism-based; conditions: human, in vivo
[5] = Half life in mouse at 25 mg/kg, po; format: ADME, organism-based; conditions: in vivo
[6] = Apparent half life in patient with EGFR TKI-resistant NSCLC at 20 to 240 mg, po qd; format: ADME, organism-based; conditions: human, in vivo, read-out: t1/2(app) (converted)
[7] = tested on: NCI-H1975; experiment: Antiproliferative activity against EGFR L858R / T790M double mutant expressing human NCI-H1975 cells assessed as cell viability after 72 hrs by CellTiterGlo analysis; format: functional; conditions: NCI-H1975, 72 h
[8] = Antiproliferative activity against EGFR Del ex19 mutant expressing human PC9 cells assessed as cell viability after 72 hrs by CellTiterGlo analysis; format: functional; conditions: PC-9, 72 h
[9] = tested on: A-431; experiment: Antitumor activity against human A431 cells xenografted in NCR Nu/Nu mouse assessed as tumor growth inhibition at 50 mg/kg, ip administered as bid; format: functional; conditions: A-431, ip, read-out: TGI
[10] = Antiproliferative activity against EGFR Del 19 mutant expressing human HCC827 cells assessed as cell viability after 72 hrs by CellTiterGlo analysis; format: functional; conditions: HCC827, 72 h
[11] = Oral bioavailability in Nu/Nu mouse at 20 mg/ kg; format: ADME, organism-based; conditions: in vivo
[12] = Antiproliferative activity against EGFR Del ex19/T790M mutant expressing human HCC827EPR cells assessed as cell viability after 72 hrs by CellTiterGlo analysis; format: functional
[13] = tested on: A-431; experiment: Antiproliferative activity against wild type EGFR expressing human A431 cells assessed as cell viability after 72 hrs by CellTiterGlo analysis; format: functional; conditions: A-431, 72 h

Epidermal growth factor receptor (Homo sapiens, UniProt P00533, EX19DEL), sequence (P00533 whole entry, looked up, stated change not applied): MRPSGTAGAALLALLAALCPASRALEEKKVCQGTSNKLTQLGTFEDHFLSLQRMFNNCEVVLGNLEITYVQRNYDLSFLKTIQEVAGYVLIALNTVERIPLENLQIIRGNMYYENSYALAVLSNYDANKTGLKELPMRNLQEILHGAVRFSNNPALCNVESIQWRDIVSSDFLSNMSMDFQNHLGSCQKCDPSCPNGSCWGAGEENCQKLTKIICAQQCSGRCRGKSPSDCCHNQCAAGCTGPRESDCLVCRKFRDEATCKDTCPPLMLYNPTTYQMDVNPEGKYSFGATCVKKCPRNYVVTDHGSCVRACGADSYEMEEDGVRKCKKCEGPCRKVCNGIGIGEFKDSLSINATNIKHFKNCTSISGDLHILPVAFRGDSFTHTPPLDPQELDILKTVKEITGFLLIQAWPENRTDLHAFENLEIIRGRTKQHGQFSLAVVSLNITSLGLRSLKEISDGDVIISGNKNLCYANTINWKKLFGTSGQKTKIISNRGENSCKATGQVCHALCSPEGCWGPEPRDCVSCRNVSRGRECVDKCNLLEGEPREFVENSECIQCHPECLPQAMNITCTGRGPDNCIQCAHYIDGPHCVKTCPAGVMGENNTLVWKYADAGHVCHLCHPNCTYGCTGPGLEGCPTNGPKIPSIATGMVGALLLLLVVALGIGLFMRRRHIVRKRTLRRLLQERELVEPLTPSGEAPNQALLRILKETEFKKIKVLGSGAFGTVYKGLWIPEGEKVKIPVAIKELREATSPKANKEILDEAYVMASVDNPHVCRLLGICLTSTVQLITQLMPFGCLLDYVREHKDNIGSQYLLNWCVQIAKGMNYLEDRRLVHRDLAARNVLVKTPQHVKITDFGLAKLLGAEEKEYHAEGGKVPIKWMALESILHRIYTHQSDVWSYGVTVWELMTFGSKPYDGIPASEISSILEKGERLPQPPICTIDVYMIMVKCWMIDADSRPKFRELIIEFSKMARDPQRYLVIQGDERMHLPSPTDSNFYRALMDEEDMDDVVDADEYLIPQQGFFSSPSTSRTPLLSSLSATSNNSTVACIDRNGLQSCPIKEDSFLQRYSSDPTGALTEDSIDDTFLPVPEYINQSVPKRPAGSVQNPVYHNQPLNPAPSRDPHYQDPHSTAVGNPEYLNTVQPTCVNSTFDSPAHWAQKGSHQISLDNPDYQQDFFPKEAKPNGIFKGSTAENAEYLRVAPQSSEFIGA
Epidermal growth factor receptor (Homo sapiens, UniProt P00533), sequence (P00533 whole entry): as the sequence (P00533 whole entry, looked up, stated change not applied) above
Epidermal growth factor receptor (Homo sapiens, UniProt P00533, L858R/T790M), sequence (P00533 25-1210 T790M/L858R limits assumed): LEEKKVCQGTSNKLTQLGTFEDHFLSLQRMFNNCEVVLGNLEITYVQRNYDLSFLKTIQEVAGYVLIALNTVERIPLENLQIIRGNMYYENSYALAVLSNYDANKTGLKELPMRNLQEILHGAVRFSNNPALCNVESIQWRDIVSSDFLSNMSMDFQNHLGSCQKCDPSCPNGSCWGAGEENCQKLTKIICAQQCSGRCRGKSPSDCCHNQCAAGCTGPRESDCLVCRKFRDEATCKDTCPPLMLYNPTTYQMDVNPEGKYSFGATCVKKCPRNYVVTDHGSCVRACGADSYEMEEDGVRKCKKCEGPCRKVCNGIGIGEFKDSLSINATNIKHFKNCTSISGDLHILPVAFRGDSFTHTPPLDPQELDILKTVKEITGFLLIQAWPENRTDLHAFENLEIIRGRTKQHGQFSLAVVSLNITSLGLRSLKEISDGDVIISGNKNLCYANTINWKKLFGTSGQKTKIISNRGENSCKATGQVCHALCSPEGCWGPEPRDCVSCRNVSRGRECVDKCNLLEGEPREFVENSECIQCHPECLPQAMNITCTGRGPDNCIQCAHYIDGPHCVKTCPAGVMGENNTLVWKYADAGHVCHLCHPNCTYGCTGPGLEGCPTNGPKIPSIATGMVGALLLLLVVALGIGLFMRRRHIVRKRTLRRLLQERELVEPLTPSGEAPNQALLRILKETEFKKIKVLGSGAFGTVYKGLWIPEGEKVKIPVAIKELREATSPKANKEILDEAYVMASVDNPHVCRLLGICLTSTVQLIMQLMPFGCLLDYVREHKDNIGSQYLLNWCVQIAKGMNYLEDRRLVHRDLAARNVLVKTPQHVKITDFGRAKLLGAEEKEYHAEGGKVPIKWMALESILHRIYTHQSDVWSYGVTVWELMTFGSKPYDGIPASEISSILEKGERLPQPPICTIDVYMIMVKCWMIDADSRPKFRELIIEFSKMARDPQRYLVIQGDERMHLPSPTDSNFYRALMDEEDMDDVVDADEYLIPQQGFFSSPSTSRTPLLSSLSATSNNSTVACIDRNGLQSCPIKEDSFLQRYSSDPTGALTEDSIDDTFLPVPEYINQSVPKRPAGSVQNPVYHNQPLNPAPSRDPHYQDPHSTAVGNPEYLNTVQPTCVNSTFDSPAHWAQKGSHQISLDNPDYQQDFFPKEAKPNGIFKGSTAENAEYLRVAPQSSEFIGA

IC50 [1]: 786 nM
IC50 [2]: 26 nM
IC50 [3]: 45 nM
Compound: C=CC(=O)Nc1cc(Nc2nccc(-c3cn(C)c4ccccc34)n2)c(OC)cc1N(C)CCNC

Compound: C=CC(=O)Nc1cc(Nc2nccc(-c3cn(C)c4ccccc34)n2)c(OC)cc1N(C)CCN(C)C [OSIMERTINIB]
CL/F [4]: 237 mL/min
half-life [5]: 180 min
half-life [6]: 2.29 days

IC50 [1]: 33 nM
IC50 [2]: 2 nM
IC50 [3]: 2 nM
Compound: C=CC(=O)Nc1cc(Nc2nccc(-c3c[nH]c4ccccc34)n2)c(OC)cc1N(C)CCN(C)C

GI50 [7]: 7 nM
bioavailability [11]: 65%
GI50 [13]: 547 nM
Compound: C=CC(=O)Nc1cccc(Nc2nc(Nc3ccc(N4CCN(C(C)=O)CC4)cc3OC)ncc2C(F)(F)F)c1 [ROCILETINIB]
GI50 [8]: 7 nM
inhibition in vivo at 50 mg/kg [9]: 36%
GI50 [10]: 7 nM
GI50 [12]: 7 nM
